Where a SMILES comes first, the peptide text is derived from it.
Legend:
Assay type in all cases: cell-based
human 5-HT3-C = target: T1, human 5-HT3-C (Homo sapiens, UniProt Q8WXA8); assay: Two-electrode voltage clamp, Xenopus oocytes injected with 5-HT3-C cRNA alone; conditions: for sensitivity of oocytes to neuroactive compound: >100 μM, only 5-HT3-C cRNA (33.5 ng), n=5
T1 construct: Characterization of the Function of Protein Encoded by p5HT3CR in Xenopus oocvtes; expressed in transfected cells; host or cells: Xenopus laevis oocytes injected with in vitro transcribed cRNA (pGEM HE)
T1 sequence (Q8WXA8 28-447): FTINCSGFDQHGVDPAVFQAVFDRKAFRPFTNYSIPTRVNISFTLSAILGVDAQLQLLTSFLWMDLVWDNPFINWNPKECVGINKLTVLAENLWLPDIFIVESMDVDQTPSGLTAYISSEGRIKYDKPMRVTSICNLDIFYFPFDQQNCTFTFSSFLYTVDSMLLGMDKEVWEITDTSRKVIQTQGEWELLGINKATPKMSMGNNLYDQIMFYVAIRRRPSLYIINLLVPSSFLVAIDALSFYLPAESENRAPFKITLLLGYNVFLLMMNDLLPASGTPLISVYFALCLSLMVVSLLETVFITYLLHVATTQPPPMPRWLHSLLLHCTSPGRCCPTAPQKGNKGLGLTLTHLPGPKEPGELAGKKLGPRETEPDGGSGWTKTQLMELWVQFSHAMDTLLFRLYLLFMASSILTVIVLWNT
Protocol: Characterization of the Function of Protein Encoded by p5HT3CR in Xenopus oocvtes Xenopus laevis oocytes were prepared and injected using standard methods previously described and known in the art (Fraser et al., 1993). Ovarian lobes from adult female Xenopus laevis (Nasco, Fort Atkinson, Wis.) were teased apart, rinsed several times in nominally Ca-free saline containing (in mM): NaCl 82.5, KCl 2.5, MgCl2 1, HEPES 5, adjusted to pH 7.0 with NaOH(OR-2), and gently shaken in OR-2 containing 0.2% collagenase Type 1 (ICN Biomedicals, Aurora, Ohio) for 2–5 hours. When approximately 50% of the follicular layers were removed, Stage V and VI oocytes were selected and rinsed in media consisting of 75% OR-2 and 25% ND-96. The ND-96 contained (in mM): NaCl 100, KCl 2, MgCl2 1, CaCl2 1.8, HEPES 5, Na pyruvate 2.5, gentamicin (50 ug/ml), adjusted to pH 7.0 with NaOH. […] For in vitro transcription, pGEM HE (Liman et al., 1992) containing human 5-HT3-A (Genbank D49394) or 5-HT3-C cDNA was linearized with NheI and transcribed with T7 RNA polymerase (Stratagene) in the presence of the cap analog m7G(5′)ppp(5′)G. The synthesized cRNA was purified with a Sephadex G-50 spin column. […] Control oocytes were injected with 50 nl of water. Oocytes were incubated for 2–14 days in ND-96 before analysis for expression of the human 5-HT3-C. Incubations and collagenase digestion were carried out at room temperature. Injected oocytes were maintained in 48 well cell culture clusters (Costar, Cambridge, Mass.) at 18° C. Whole cell agonist-induced currents were measured 1–14 days after injection with a conventional two-electrode voltage clamp (GeneClamp500, Axon Instruments, Foster City, Calif.) using standard methods previously described and known in the art (Dascal, 1987). The microelectrodes were filled with 3 M KCl, which had resistances of 1 and 2 MΩ. Cells were continuously perfused with ND96 at 10 ml/min at room temperature unless indicated. Membrane voltage was clamped at −70 mV unless indicated.

[1] = target: T2, 5-HT3-C together with nicotinic ACh receptor subunits β1, β2 and β3 (Homo sapiens, UniProt Q8WXA8); assay: Two-electrode voltage clamp, oocytes injected with 5-HT3-C together with nicotinic ACh receptor subunits β1, β2 and β3; conditions: >100 μM; 5-HT3-C with β1, β2 and β3 (0.2–0.25 ng); n=5;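 also: oocytes expressing the subunits for 2–14 days, voltage-clamped at −70 mV under continuous ND96 perfusion at room temperature, with water-injected oocytes serving as controls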
T2 construct: Characterization of the Function of Protein Encoded by p5HT3CR in Xenopus oocvtes; expressed in transfected cells; host or cells: Xenopus laevis oocytes injected with cRNA
T2 sequence (Q8WXA8 28-447): T1 sequence (Q8WXA8 28-447)

[2] = target: T3, 5-HT3-C together with nicotinic ACh receptor a6 subunit (Homo sapiens, UniProt Q15825+Q8WXA8); assay: Two-electrode voltage clamp, oocytes injected with 5-HT3-C together with nicotinic ACh receptor α6 subunit; conditions: 500 μM; eight days after injection; 5-HT3-C 0.67 ng, a6 1 ng/oocyte
T3 construct: Characterization of the Function of Protein Encoded by p5HT3CR in Xenopus oocvtes; expressed in transfected cells; host or cells: Xenopus laevis oocytes injected with cRNA
T3 sequence (Q15825 26-494, one chain of several): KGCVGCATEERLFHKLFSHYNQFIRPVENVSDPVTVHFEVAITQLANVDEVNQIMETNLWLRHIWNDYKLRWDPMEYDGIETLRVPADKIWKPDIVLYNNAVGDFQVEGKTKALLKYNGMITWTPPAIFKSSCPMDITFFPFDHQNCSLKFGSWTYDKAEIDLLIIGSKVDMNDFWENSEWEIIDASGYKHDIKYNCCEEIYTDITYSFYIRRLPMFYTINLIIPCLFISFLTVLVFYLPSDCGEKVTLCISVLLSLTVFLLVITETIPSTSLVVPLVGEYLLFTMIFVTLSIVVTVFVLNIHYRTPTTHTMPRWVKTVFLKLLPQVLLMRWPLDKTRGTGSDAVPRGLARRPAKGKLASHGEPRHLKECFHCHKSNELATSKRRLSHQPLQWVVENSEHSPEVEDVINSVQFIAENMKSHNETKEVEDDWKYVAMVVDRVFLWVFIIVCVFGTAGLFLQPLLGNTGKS
Protocol: Characterization of the Function of Protein Encoded by p5HT3CR in Xenopus oocvtes Xenopus laevis oocytes were prepared and injected using standard methods previously described and known in the art (Fraser et al., 1993). Ovarian lobes from adult female Xenopus laevis (Nasco, Fort Atkinson, Wis.) were teased apart, rinsed several times in nominally Ca-free saline containing (in mM): NaCl 82.5, KCl 2.5, MgCl2 1, HEPES 5, adjusted to pH 7.0 with NaOH(OR-2), and gently shaken in OR-2 containing 0.2% collagenase Type 1 (ICN Biomedicals, Aurora, Ohio) for 2–5 hours. When approximately 50% of the follicular layers were removed, Stage V and VI oocytes were selected and rinsed in media consisting of 75% OR-2 and 25% ND-96. The ND-96 contained (in mM): NaCl 100, KCl 2, MgCl2 1, CaCl2 1.8, HEPES 5, Na pyruvate 2.5, gentamicin (50 ug/ml), adjusted to pH 7.0 with NaOH. […] For in vitro transcription, pGEM HE (Liman et al., 1992) containing human 5-HT3-A (Genbank D49394) or 5-HT3-C cDNA was linearized with NheI and transcribed with T7 RNA polymerase (Stratagene) in the presence of the cap analog m7G(5′)ppp(5′)G. The synthesized cRNA was purified with a Sephadex G-50 spin column. Oocytes were injected with 50 nl of the human serotonin 5-HT3-A receptor with or without the 5-HT3-C RNA (0.02 and 0.002–0.2 ng each) or other channel or receptor subunit. Control oocytes were injected with 50 nl of water. Oocytes were incubated for 2–14 days in ND-96 before analysis for expression of the human 5-HT3-C. Incubations and collagenase digestion were carried out at room temperature. Injected oocytes were maintained in 48 well cell culture clusters (Costar, Cambridge, Mass.) at 18° C. Whole cell agonist-induced currents were measured 1–14 days after injection with a conventional two-electrode voltage clamp (GeneClamp500, Axon Instruments, Foster City, Calif.) using standard methods previously described and known in the art (Dascal, 1987). The microelectrodes were filled with 3 M KCl, which had resistances of 1 and 2 MΩ. […]

[3] = 10 μM, oocytes injected with 33.3 ng 5-HT3-C cRNA

| SMILES | sensitivity of oocytes to neuroactive compound (human 5-HT3-C) | sensitivity of oocytes to neuroactive compound [1] | further results |
| --- | --- | --- | --- |
| O=C(O)c1cc2cc(O)ccc2[nH]1 [5-hydroxyindole 2-carboxylic acid] | insensitive | insensitive | – |
| N[C@H](CC(=O)O)C(=O)O [L-aspartate, L- and D-aspartate] | insensitive | insensitive | – |
| CC(=O)N[C@@H](CS)C(=O)O [N-acetyl-L-cysteine] | insensitive | insensitive | – |
| CC(=O)NCCc1c[nH]c2ccc(O)cc12 [N-acetyl serotonin] | insensitive | insensitive | – |
| NC(=O)Cc1c[nH]c2ccc(O)cc12 [5-hydroxyindole 3-acetamide] | insensitive | insensitive | – |
| COc1cc2c(CCNC(C)=O)c[nH]c2cc1O [6-hydroxymelatonin] | insensitive | insensitive | – |
| O=C(O)Cc1c[nH]c2ccc(O)cc12 [5-hydroxyindolacetic acid] | insensitive | insensitive | – |
| NCCCC(=O)O [GABA] | insensitive | insensitive | effect of agonist (agonist-induced current) (human 5-HT3-C; >30 μM, oocytes injected with 33.3 ng 5-HT3-C cRNA): No effect |
| NC[C@H](O)c1ccc(O)c(O)c1 [norepinephrine] | insensitive | insensitive | – |
| N[C@@H](CCC(=O)O)C(=O)O [glutamate] | insensitive | insensitive | – |
| NCCc1c[nH]c2ccccc12 [tryptamine] | insensitive | insensitive | – |
| NCCC(=O)O [β-alanine] | insensitive | insensitive | – |
| NCCc1ccccc1 [β-phenylethylamine] | insensitive | insensitive | – |
| N[C@@H]1CONC1=O [d-cycloserine] | insensitive | insensitive | – |
| NCCc1ccc(O)c(O)c1 [DA, dopamine] | insensitive | insensitive | effect of agonist (agonist-induced current) (human 5-HT3-C; 100 μM, oocytes injected with 33.5 ng 5-HT3-C): No effect |
| CC(=O)OCC[N+](C)(C)C [ACh] | insensitive | insensitive | effect of agonist (agonist-induced current) (human 5-HT3-C; [3]): No effect; effect of agonist (agonist-induced current) (human 5-HT3-C; 500 μM, oocytes injected with 33.5 ng 5-HT3-C): No effect; responsiveness of oocytes to agonist [2]: not responsive |

The next lines start with results.

| sensitivity of oocytes to neuroactive compound (human 5-HT3-C) | sensitivity of oocytes to neuroactive compound [1] | SMILES | further results |
| --- | --- | --- | --- |
| insensitive | insensitive | NCCS(=O)(=O)O [taurine] | – |
| insensitive | insensitive | CC(=O)N[C@@H](CC(=O)O)C(=O)N[C@@H](CCC(=O)O)C(=O)O [acetyl-aspartyl-L-glutamic acid] (Ac-Asp-Glu-OH) | – |
| insensitive | insensitive | NCCc1ccc(O)cc1 [tyramine] | – |
| insensitive | insensitive | N[C@@H](Cc1c[nH]c2ccccc12)C(=O)O [tryptophan] | – |
| insensitive | insensitive | N=C(N)NCCCCN [agmatine] | – |
| insensitive | insensitive | NC/C=C\C(=O)O [cis-4 aminocrotonic acid] | – |
| insensitive | insensitive | COc1ccc2[nH]cc(CCNC(C)=O)c2c1 [melatonin] | – |
| insensitive | insensitive | NCCc1c[nH]cn1 [histamine] | effect of agonist (agonist-induced current) (human 5-HT3-C; [3]): No effect |
| insensitive | insensitive | NCC(O)c1ccc(O)cc1 (stereo not shown) [octopamine] | – |
| insensitive | insensitive | NC(=O)[C@@H](N)Cc1c[nH]c2ccccc12 [tryptophanamide] | – |
| insensitive | insensitive | NCC(=O)O [glycine] | effect of agonist (agonist-induced current) (human 5-HT3-C; 100 M, oocytes injected with 33.3 ng 5-HT3-C cRNA): No effect |

— US7109296B2, “Human 5-HT3-C protein” (Ortho-McNeil Pharmaceutical, Inc., priority 1999, dated 2006)
